Measurements taken from US12428406B2 (PMV Pharmaceuticals, Inc., priority 2019, dated 2025).

Target: T1, p53 Y220C (Homo sapiens, UniProt P04637, Y220C)
T1 construct: The recombinant protein was a truncation mutant containing only amino acids 94-312 of p53; made in house; host or cells: E. coli
Assay: In vitro DNA binding activity assay (HTRF / TR-FRET): stabilization of p53 Y220C and increase of its DNA binding activity
Type: biochemical
Details: recombinant His-tagged p53 Y220C DNA binding domain (aa 94-312), biotin-labeled consensus DNA, incubated at 27° C. or 29° C. for 60 min
Outline: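 Homogeneous time-resolved fluorescence with E. coli-derived p53 Y220C and biotinylated consensus DNA. Room-temperature incubations of 15 and 20 min precede reading. SC150 denotes the compound concentration required for 50% increased DNA binding.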

T1 sequence (P04637 94-312, change not shown): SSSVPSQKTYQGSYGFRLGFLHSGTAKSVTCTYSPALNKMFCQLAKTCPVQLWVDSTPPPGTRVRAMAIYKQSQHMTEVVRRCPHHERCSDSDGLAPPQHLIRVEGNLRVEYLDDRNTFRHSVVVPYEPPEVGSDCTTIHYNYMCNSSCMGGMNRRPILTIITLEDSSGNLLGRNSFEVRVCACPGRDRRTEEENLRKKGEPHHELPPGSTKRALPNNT

Structure (SMILES) | SC150 (concentration of the compound required to increase the DNA binding activity by 50%)
CS(=O)(=O)c1ccc(NCC#Cc2cc3c(N[C@H]4CC[C@H](N5CC6(COC6)C5)CC4)cccc3n2CC(F)(F)F)c(O)c1 [Compound 214A, 5-methanesulfonyl-2-{[3-(4-{[(1R,4R)-4-{2-oxa-6-azaspiro[3.3]heptan-6-yl}cyclohexyl]amino}-1-(2,2,2-trifluoro-ethyl)-1H-indol-2-yl)prop-2-yn-1-yl]amino}phenol] | + (+ = 0 μM ≤ SC150 < 0.05 μM)
CS(=O)(=O)c1ccc(NCC#Cc2cc3c(N[C@H]4CC[C@@H](N5CC6(COC6)C5)CC4)cccc3n2CC(F)(F)F)c(O)c1 [Compound 215A, 5-methanesulfonyl-2-{[3-(4-{[(1S,4S)-4-{2-oxa-6-azaspiro [3.3]heptan-6-yl}cyclo-hexyl]amino}-1-(2,2,2-trifluoroethyl)-1H-indol-2-yl)prop-2-yn-1-yl]amino}phenol] | + (+ = 0 μM ≤ SC150 < 0.05 μM)
CC(C)C(=O)N(CC#Cc1cc2c(N[C@H]3CC[C@H](N4CC5(COC5)C4)CC3)cccc2n1CC(F)(F)F)c1ccc(S(C)(=O)=O)cc1O [Compound 218A, N-(2-hydroxy-4-methanesulfonylphenyl)-2-methyl-N-[3-(4-{[(1R,4R)-4-{2-oxa-6-azaspiro[3.3]heptan-6-yl}cyclohexyl]amino}-1-(2,2,2-trifluoroethyl)-1H-indol-2-yl)prop-2-yn-1-yl]propanamide] | ++++ (++++ = 0.2 μM ≤ SC150 < 1 μM)
COCCOc1cc(S(C)(=O)=O)ccc1NCC#Cc1cc2c(N[C@H]3CC[C@H](N4CC5(COC5)C4)CC3)cccc2n1CC(F)(F)F [Compound 220A, 2-(3-{[4-methane-sulfonyl-2-(2-methoxyethoxy)phenyl]amino}prop-1-yn-1-yl)-N-[(1R,4R)-4-{2-oxa-6-azaspiro[3.3]heptan-6-yl}cyclohexyl]-1-(2,2,2-trifluoroethyl)-1H-indol-4-amine] | + (+ = 0 μM ≤ SC150 < 0.05 μM)
COCCOc1cc(S(C)(=O)=O)ccc1NCC#Cc1cc2c(N[C@H]3CC[C@@H](N4CC5(COC5)C4)CC3)cccc2n1CC(F)(F)F [Compound 221A, 2-(3-{[4-methane-sulfonyl-2-(2-methoxyethoxy)phenyl]amino}prop-1-yn-1-yl)-N-[(1S,4S)-4-{2-oxa-6-azaspiro[3.3]heptan-6-yl}cyclohexyl]-1-(2,2,2-trifluoroethyl)-1H-indol-4-amine] | + (+ = 0 μM ≤ SC150 < 0.05 μM)
CS(=O)(=O)c1ccc(NCC#Cc2cc3c(N[C@H]4CC[C@H](N5CC6(COC6)C5)CC4)cccc3n2CC(F)(F)F)c(OCC#N)c1 [Compound 222A, 2-(5-methanesulfonyl-2-{[3-(4-{[(1R,4R)-4-{2-oxa-6-azaspiro[3.3]heptan-6-yl}cyclo-hexyl]amino}-1-(2,2,2-trifluoroethyl)-1H-indol-2-yl)prop-2-yn-1-yl]amino}phenoxy) acetonitrile] | + (+ = 0 μM ≤ SC150 < 0.05 μM)
CS(=O)(=O)c1ccc(NCC#Cc2cc3c(N[C@H]4CC[C@@H](N5CC6(COC6)C5)CC4)cccc3n2CC(F)(F)F)c(OCC#N)c1 [Compound 223A, 2-(5-methanesulfonyl-2-{[3-(4-{[(1S,4S)-4-{2-oxa-6-azaspiro[3.3]heptan-6-yl}cyclo-hexyl]amino}-1-(2,2,2-trifluoroethyl)-1H-indol-2-yl)prop-2-yn-1-yl]amino}phenoxy) acetonitrile] | + (+ = 0 μM ≤ SC150 < 0.05 μM)
CC(C)C(=O)Oc1cc(S(C)(=O)=O)ccc1NCC#Cc1cc2c(N[C@H]3CC[C@@H](N4CC5(COC5)C4)CC3)cccc2n1CC(F)(F)F [Compound 224A, 5-methanesulfonyl-2-{[3-(4-{[(1S,4S)-4-{2-oxa-6-azaspiro[3.3]heptan-6-yl}cyclohexyl]amino}-1-(2,2,2-trifluoroethyl)-1H-indol-2-yl)prop-2-yn-1-yl]amino}phenyl 2-methylpropanoate] | + (+ = 0 μM ≤ SC150 < 0.05 μM)
CS(=O)(=O)c1ccc(NCC#Cc2cc3c(N[C@H]4CC[C@H](N5CC6(COC6)C5)CC4)cccc3n2CC(F)(F)F)c(OCCO)c1 [Compound 225A, 2-(5-methanesulfonyl-2-{[3-(4-{[(1R,4R)-4-{2-oxa-6-azaspiro[3.3]heptan-6-yl}cyclo-hexyl]amino}-1-(2,2,2-trifluoroethyl)-1H-indol-2-yl)prop-2-yn-1-yl]amino}phenoxy)ethan-1-ol] | + (+ = 0 μM ≤ SC150 < 0.05 μM)
CS(=O)(=O)c1ccc(NCC#Cc2cc3c(N[C@H]4CC[C@@H](N5CC6(COC6)C5)CC4)cccc3n2CC(F)(F)F)c(OCCO)c1 [Compound 226A, 2-(5-methanesulfonyl-2-{[3-(4-{[(1S,4S)-4-{2-oxa-6-azaspiro[3.3]heptan-6-yl}cyclo-hexyl]amino}-1-(2,2,2-trifluoroethyl)-1H-indol-2-yl)prop-2-yn-1-yl]amino}phenoxy)ethan-1-ol] | + (+ = 0 μM ≤ SC150 < 0.05 μM)
CC(C)C(=O)Oc1cc(S(C)(=O)=O)ccc1NCC#Cc1cc2c(N[C@H]3CC[C@H](N4CC5(COC5)C4)CC3)cccc2n1CC(F)(F)F [Compound 228A, 5-methanesulfonyl-2-{[3-(4-{[(1R,4R)-4-{2-oxa-6-azaspiro[3.3]heptan-6-yl}cyclohexyl]amino}-1-(2,2,2-trifluoroethyl)-1H-indol-2-yl)prop-2-yn-1-yl]amino}phenyl 2-methylpropanoate] | + (+ = 0 μM ≤ SC150 < 0.05 μM)
CNC(=O)c1ccc(NCC#Cc2cc3c(N[C@H]4CC[C@H](N5CC6(COC6)C5)CC4)cccc3n2CC(F)(F)F)c(OC)c1 [Compound 229A, 3-methoxy-N-methyl-4-{[3-(4-{[(1R,4R)-4-{2-oxa-6-azaspiro[3.3]heptan-6-yl}cyclohexyl]amino}-1-(2,2,2-trifluoroethyl)-1H-indol-2-yl)prop-2-yn-1-yl]amino}benzamide] | + (+ = 0 μM ≤ SC150 < 0.05 μM)
CNC(=O)c1ccc(NCC#Cc2cc3c(N[C@H]4CC[C@@H](N5CC6(COC6)C5)CC4)cccc3n2CC(F)(F)F)c(OC)c1 [Compound 230A, 3-methoxy-N-methyl-4-{[3-(4-{[(1S,4S)-4-{2-oxa-6-azaspiro[3.3]heptan-6-yl}cyclo-hexyl]amino}-1-(2,2,2-trifluoroethyl)-1H-indol-2-yl)prop-2-yn-1-yl]amino}benzamide] | + (+ = 0 μM ≤ SC150 < 0.05 μM)
CS(=O)(=O)c1ccc(NCC#Cc2cc3c(N[C@H]4CC[C@H](N5CC6(COC6)C5)CC4)cccc3n2CC(F)(F)F)c(OCC(F)(F)F)c1 [Compound 231A, 2-(3-{[4-methane-sulfonyl-2-(2,2,2-trifluoro-ethoxy)phenyl]amino}prop-1-yn-1-yl)-N-[(1R,4R)-4-{2-oxa-6-azaspiro[3.3]heptan-6-yl}cyclohexyl]-1-(2,2,2-trifluoroethyl)-1H-indol-4-amine] | + (+ = 0 μM ≤ SC150 < 0.05 μM)
